Measured values published in the METLIN SMRT retention time set (Domingo-Almenara et al. 2019).

Experiment: gradient 5% acetonitrile 3 min, to 50% in 2 min, to 85% in 15 min, held 3 min, 100 µL/min
Conditions: column: Zorbax Extend-C18 2.1 x 50 mm; eluents: water / acetonitrile, 0.1% formic acid
Method in brief: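 In both positive and negative ionization mode, a quadrupole time-of-flight mass spectrometer coupled to HPLC analyzed pure standards run in mixtures of ~100 molecules. The Zorbax Extend-C18 column (2.1 × 50 mm, 1.8 μm) was operated at 100 μL/min with water and acetonitrile, each containing 0.1% formic acid. The dead volume was 40 μL and the dwell volume 900 μL. Retention time came from adduct peaks that were computationally picked and individually inspected by hand.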

| Structure (SMILES) | RP-LC retention time |
| --- | --- |
| COc1ccc2c(Oc3ccc(NC(=O)c4c(C)n(CC(C)(C)O)n(-c5ccccc5)c4=O)nc3)ccnc2c1 | 707 s |
| CCCCNC(=O)c1cc(NS(=O)(=O)c2c(C)cc(C)cc2C)cnc1N1CCNCC1 | 661 s |
| Cc1ccc(S(=O)(=O)N2C(=O)CCC2C(=O)Nc2cc(C)ccc2C)cc1 (stereo not drawn) | 939 s |
| CCn1cc(CCN2CCN(C(=O)c3ccc(Br)cc3)CC2)c2cccnc21 | 629 s |
| CCOC(=O)c1nc(N(C)c2cccc(Cl)c2)c2ccccc2n1 | 982 s |
| O=C1CC(c2noc(CCc3ccccc3)n2)CN1c1ccc(F)c(Cl)c1 (stereo not drawn) | 1050 s |
| O=C(C1CCN(c2cnc3nccnc3c2)CC1)N1CCC2(CC1)OCCO2 | 620 s |
| COc1ccccc1N1CCN(c2cc(SCC(=O)Nc3cc(F)ccc3F)ncn2)CC1 | 1130 s |
| O=C(c1cc(-c2ccncc2)n[nH]1)N1CCC(C(=O)N2CCN(c3ncccn3)CC2)CC1 | 575 s |
| Cc1ccc(S(=O)(=O)Nc2ccc3c(c2)CCC(=O)N3CC(C)C)cc1 | 887 s |
| CCn1ccc2sc(C)c(C(=O)NCc3cc(C)ccc3C)c2c1=O | 959 s |
| CN1C(=O)C(CC(=O)Nc2cccnc2)=C2CCCCC21 (stereo not drawn) | 564 s |
| O=C(Cn1nc2nc(N3CCCC3)ccn2c1=O)N1CCN(c2ccccc2F)CC1 | 691 s |
| COc1ccc(CCC(=O)N2CCN(c3nccn3-c3cccc(Cl)c3)CC2)cc1 | 617 s |
| COc1ccc2c(c1)CCc1sc(NC(=O)c3ccco3)nc1-2 | 961 s |
| CNC(=O)c1cc(N2CCOCC2)nc2c(C)cccc12 | 704 s |
| CCOC(=O)c1c(C)oc2nc(C)nc(N3CCN(c4ccc(C(C)=O)cc4)CC3)c12 | 642 s |
| Cc1[nH]c(=O)[nH]c(=O)c1S(=O)(=O)NC(C)C | 581 s |
| Nc1nc(N2CCN(C3CCCCC3)CC2)ncc1C(=O)NCc1ccccc1 | 627 s |
| CNC(=O)[C@H](Cc1c[nH]c2ccccc12)NC(=O)[C@@H](CC(=O)NO)CC(C)C | 662 s |
| CCCn1cc(CNC(=O)CN2CCN(Cc3ccc(F)cc3)C2=O)c(C)n1 | 674 s |
| CCCn1c(=O)sc2cc(S(=O)(=O)N3CCC(C(=O)Nc4ccc(OC)cc4)CC3)ccc21 | 918 s |
| CC(C)n1cnc(S(=O)(=O)N2CCC(C(=O)NCCC3=CCCCC3)CC2)c1 | 804 s |
| COCC(=O)N1CCOc2ccc(N(C)C)cc2C1 | 550 s |
| COc1ccc(NC(=O)Nc2ccc3c(c2)CCN3S(=O)(=O)c2ccc(C)cc2)cc1 | 953 s |
| CCCNC(=O)C1CCN(S(=O)(=O)c2cc(C(=O)N(C)C)cs2)CC1 | 658 s |
| Cc1cc2c(cc1S(=O)(=O)N1CCCC1C(=O)NCc1ccccc1Cl)OCC(=O)N2 (stereo not drawn) | 791 s |

| Structure (SMILES) | RP-LC retention time |
| --- | --- |
| Cc1ccc(NC(=O)C2CCN(S(=O)(=O)c3cn(C(C)C)cn3)CC2)cc1C | 819 s |
| O=C(Nc1nnc(SCc2cccc(Cl)c2)s1)c1ccccc1C(F)(F)F | 1010 s |
| O=C(NCCc1ccccc1)N1CCCC(Cn2c(C3CC3)nc3cccnc32)C1 (stereo not drawn) | 682 s |
| COc1cc(C(=O)N2CCC3(CC2)NC(=O)c2ccc(Cl)cc2N3)cc(OC)c1OC | 721 s |
| O=C(CCSc1ccccc1)NCC1CCN(C(=O)COc2ccccc2)CC1 | 757 s |
| COc1ccc(-c2nc(-c3ccc(-c4ccc(Cl)cc4)o3)[nH]c2-c2ccc(OC)cc2)cc1 | 988 s |
| Cc1cccc(CN2CC(=O)N(c3ccccc3)[C@@H]3CS(=O)(=O)C[C@@H]32)c1 | 800 s |
| CC1=C(c2ccc(F)cc2)S(=O)(=O)N=C1N1CCCN(C(=O)C(C)C)CC1 | 751 s |
| CCOC(=O)c1c(NC(=O)CSc2nnc(-c3cccnc3)o2)sc2c1CCC2 | 932 s |
| CN(CCc1noc(COc2ccccc2F)n1)C(=O)CCc1ccccc1 | 931 s |
| COc1ccc(NC(=O)CN2CCc3[nH]c4c(C)c(Cl)ccc4c(=O)c3C2)c(OC)c1 | 656 s |
| c1csc(-c2csc(CN3CCNCC3)n2)c1 | 548 s |
| CCc1cccc(C)c1NC(=O)Cn1c(C)nc2c(sc3nc(-c4ccccc4)ccc32)c1=O | 1110 s |
| CSc1ccccc1C(=O)NCc1cc(-c2cccs2)on1 | 796 s |
| CC(C)CNC(=O)CCc1ccc2nc(-c3ccccc3)[nH]c2c1 | 618 s |
| CCCCN1CCN(S(=O)(=O)c2cc(-c3nnc(C(C)C)o3)co2)CC1 | 652 s |
| CN1C(=O)c2cc(C(=O)N3CCN(c4ncccn4)CC3)nn2CC1(C)C(=O)NC1CCCCCC1 (stereo not drawn) | 742 s |
| CCCCn1cc(S(=O)(=O)N2CCN(c3cccc(C)c3)CC2)c2cccnc21 | 1220 s |
| CC(C)n1cnc(S(=O)(=O)N2CCCC(C(=O)NCc3ccc(Cl)cc3)C2)c1 (stereo not drawn) | 799 s |
| Nc1cccc(-c2nc3ccccc3[nH]2)c1 | 532 s |
| O=C(C1CCCN(c2nc3cccnc3s2)C1)N1CCN(c2ccccc2)CC1 (stereo not drawn) | 844 s |
| CN1C(=O)c2cccnc2Sc2cc(NC(=O)C3CCOC3)ccc21 (stereo not drawn) | 619 s |
| Cc1cn(C)c(CC(=O)NCCN2CCCc3ccccc32)c1C(=O)O | 792 s |
| Cc1ccc(C)c2sc(N(C)CC(=O)O)nc12 | 793 s |
| CC(C)Oc1cccc(NC(=O)C2CCN(S(C)(=O)=O)c3cc(Cl)ccc3O2)c1 (stereo not drawn) | 998 s |
| CCOc1ccccc1NC(=O)N1CCC2(C1)C(=O)Nc1ccc(OC)cc12 (stereo not drawn) | 810 s |

Next, values leading:

| RP-LC retention time | Structure (SMILES) |
| --- | --- |
| 802 s | CC(=O)Nc1ccc(C2(C(=O)NCc3ccccc3Cl)CCC2)cc1 |
| 1090 s | Cc1ccc(-c2nc(-c3cccc(-c4ccn[nH]4)c3)no2)cc1 |
| 865 s | COc1cc(OC)c(NC(=O)Nc2cc(C)on2)cc1Cl |
| 921 s | CCc1ccc(NC(=O)Cn2c(=O)nc(N3CCC(C)CC3)c3ccccc32)cc1 |
| 603 s | CCOC(=O)c1noc2ncnc(NCC3CCN(Cc4ccccc4Cl)CC3)c12 |
| 604 s | CCc1cc(N2CCN(C(=O)c3ccccc3)CC2)nc2nnc(C)n12 |
| 863 s | CCOC(=O)N1CCN(c2ncnc3c2cnn3-c2cc(Cl)ccc2C)CC1 |
| 609 s | O=C(NCc1ccccn1)C1CCN(S(=O)(=O)c2cc(C(=O)N3CCCC3)cs2)CC1 |
| 668 s | Nc1ncncc1-c1ccc2ccccc2c1 |
| 660 s | COc1ccc2[nH]c(=O)c(CCC(=O)NCC(C)C)cc2c1 |
| 630 s | Cc1cccc(-c2noc(Cn3ccnc3)n2)c1 |
| 735 s | Cn1nnc(-c2ccc(-c3ccc(N4C[C@@H](CO)OC4=O)cc3F)cn2)n1 |
| 623 s | Cc1ccc(CN2CCN(C(=O)C3CCc4nc(N5CCOCC5)ncc4C3)CC2)cc1C (stereo not drawn) |
| 780 s | Cc1oc(-c2[nH]ncc2C(=O)N2CCCCC2)cc1S(=O)(=O)Nc1ccc(F)c(F)c1 |
| 994 s | O=C1C2ON(c3ccccc3)C(c3ccccn3)C2C(=O)N1c1cccc(C(F)(F)F)c1 (stereo not drawn) |
| 976 s | O=C(NCc1csc(-c2ccccc2)n1)C1CCN(S(=O)(=O)c2ccc(Cl)cc2)CC1 |
| 882 s | COc1ccc(-c2cc3n(n2)CCCN(S(=O)(=O)c2ccc(C(C)=O)cc2)C3)cc1 |
| 814 s | Cc1cc(F)ccc1N1C(=O)CN(S(C)(=O)=O)CC1(C)C(=O)NCc1ccc(F)cc1 (stereo not drawn) |

| RP-LC retention time | Structure (SMILES) |
| --- | --- |
| 724 s | CCc1cc(C2CCCN2C(=O)Nc2ccc(OC)c(OC)c2)on1 (stereo not drawn) |
| 1160 s | CC1Oc2ccccc2N(Cc2nc(-c3ccc(Cl)cc3)no2)C1=O (stereo not drawn) |
| 582 s | COc1cccc(CNC(=O)C2CCN(CC(=O)Nc3ccc(C)cc3)CC2)c1 |
| 1020 s | O=S(=O)(NCc1cccs1)c1ccc(Cl)c(-c2nnc(-c3ccccc3)o2)c1 |
| 734 s | Cc1ccn2c(Nc3ccc4c(c3)OCCO4)c(-c3ccc(N(C)C)cc3)nc2c1 |
| 675 s | O=C(CSc1nnc2scc(-c3ccc(Cl)cc3)n12)NCC1CCCO1 (stereo not drawn) |
| 902 s | Cc1ccc(N2CCC(NC(=O)Nc3ccc(C)c(C)c3)C2=O)cc1 (stereo not drawn) |
| 751 s | Cc1ccc(-c2cnn3c(N4CCN(c5ccccn5)CC4)cc(C)nc23)cc1 |
| 922 s | O=C(Cc1cccn1-c1ccc(F)cc1)NCc1ccc(F)cc1 |
| 826 s | Cc1cc(C)c(NC(=O)C2CCN(c3c(C(=O)N4CCOCC4)cnc4snc(C)c34)CC2)c(C)c1 |
| 834 s | COC(=O)c1ccccc1NC(=O)C1CCCN(c2nnc(C)c3c(C)n(-c4ccccc4)nc23)C1 (stereo not drawn) |
| 808 s | Nc1nc(N2CCC3(CC2)OCCO3)ncc1S(=O)(=O)c1ccccc1 |
| 715 s | CCOC(=O)C1CCN(C(=O)Cc2c(C(=O)O)c(C)cn2CC)CC1 |
| 1280 s | CCC(C)n1c(=O)c2ccccc2n(Cc2nc(-c3ccc(Cl)cc3)no2)c1=O (stereo not drawn) |
| 1050 s | O=c1c2ccccc2n(Cc2nc(-c3ccccc3)no2)c(=O)n1Cc1ccco1 |
| 976 s | Cc1cccc(-c2noc(CCn3nc(-c4ccc5c(c4)OCO5)ccc3=O)n2)c1 |
| 882 s | CCOc1ccc(OCC)c(NC(=O)C2CCN(C(=O)C3Sc4ccccc4NC3=O)CC2)c1 (stereo not drawn) |
